Assay results as given in paper PMC5597121, “The human bitter taste receptor T2R38 is broadly tuned for bacterial compounds” (PLoS ONE, 2017).
Where a chain is given by its changes, count along the chain named. “And” between values parts separate entries of the source, which are not always exact repeats. Equal entries are not always repeated. “Also recorded” adds a separate entry of the source. Where two headings read alike, the source gives them in different places. Positions of bridges follow the written chain, without caps; N, C: chain ends. Residues, ends and D or L forms follow the SMILES beside them.

Key:
T2R38 = molecular target: T1, T2R38 (Homo sapiens, UniProt P59533, A49P/I296V); assay: Single cell calcium imaging, Peakrapid cells (Gα16gustducin44) transiently transfected with T2R38; type: cell-based; conditions: for response of T2R38 PAV transfected cells (S7_fig raw data): individual values of experiments 1-5
T1 construct: leader: first 45 amino acids of rat somatostatin receptor subtype 3 (SSTR3) (N); expressed in transfected cells; host or cells: Peakrapid cells (HEK293 derivative, ATCC CRL-2828) stably expressing Galpha16gustducin44, co-transfected with human RTP4
T1 sequence (P59533 1-333 A49P/I296V): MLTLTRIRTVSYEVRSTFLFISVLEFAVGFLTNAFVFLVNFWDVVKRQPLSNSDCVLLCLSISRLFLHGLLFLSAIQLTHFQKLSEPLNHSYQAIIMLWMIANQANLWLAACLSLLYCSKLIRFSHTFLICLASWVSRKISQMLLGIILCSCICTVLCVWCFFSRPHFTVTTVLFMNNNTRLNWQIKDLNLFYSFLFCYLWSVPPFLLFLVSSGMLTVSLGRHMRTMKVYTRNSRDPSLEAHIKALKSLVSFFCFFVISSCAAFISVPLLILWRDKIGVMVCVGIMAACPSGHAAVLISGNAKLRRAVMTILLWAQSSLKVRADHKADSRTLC
Procedure, shortened: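 HEK293-derived Peakrapid cells stably expressing Gα16gustducin44 were transiently co-transfected with T2R38 (PAV or AVI variant) plus RTP4, then loaded with Fluo4 40 h later. Calcium responses were imaged 1/s for 30 s after ligand injection. Responding-cell surface was normalized to 0.1 mM PTC, with EC50 from four-parameter fits; testing began at 100 mM.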

[1] = Solubility in aqueous / buffer solution; type: physicochemical
Description: 32 volatile metabolites of pathogens (S1 Fig) were selected from the literature. All compounds were dissolved in buffer solution, except C4HSL dissolved in buffer solution, DMSO or ethanol, C12HSL dissolved in DMSO or ethanol, and Agr D1 thiolactone dissolved in DMSO.

[2] = test system: mock transfected cells (empty vector); assay: Single cell calcium imaging, control: mock transfected (empty vector) Peakrapid cells; type: cell-based, human
Procedure, shortened: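 Peakrapid cells stably expressing Gα16gustducin44 were transfected with empty vector plus RTP4, loaded with Fluo4 40 h later for 1 h at 37°C, and ligand was injected during 30 s imaging. The responding-cell surface fraction was normalized to 0.1 mM PTC activation. EC50 came from a four-parameter logistic fit.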

T2R38 AVI = molecular target: T2, T2R38 AVI (Homo sapiens, UniProt P59533, A262V); assay: Single cell calcium imaging, control: cells transfected with nonfunctional allele (AVI) of T2R38; type: cell-based; conditions: T2R38 AVI, individual values of experiments 1-5
T2 construct: leader: first 45 amino acids of rat somatostatin receptor subtype 3 (SSTR3) (N); expressed in transfected cells; host or cells: Peakrapid cells (HEK293 derivative, ATCC CRL-2828) stably expressing Galpha16gustducin44, co-transfected with human RTP4
T2 sequence (P59533 1-333 A262V): T1 sequence (P59533 1-333 A49P/I296V) with P49A, A262V, V296I
Description: The coding sequences of either the functional (PAV, GenBank accession number AY258597.1) and non-functional (AVI, GenBank accession number AF494231.1) were amplified from human genomic DNA by polymerase chain reaction.
The Peakrapid cell line expressing stably a chimeric Gα16gustducin44 G protein [21] was used. 40 000 cells were seeded in each well of a black/clear poly-D-lysine cellware pre-coated 96-well plate (Biocoat®, Becton-Dickinson, Erembodegem, Belgium) and transiently transfected with 50 ng of plasmid DNA containing the receptor sequence or not (empty vector) and with 50 ng of chaperone protein RTP4 per well. Forty hours after transfection, cells were incubated with the calcium-sensitive dye Fluo4 (Life Technologies, Oregon, USA) solubilized at 10 μg/ml in a buffer containing EMEM (150 mM NaCl, 5 mM KCl, 2 mM CaCl2, 1.2 mM MgCl2, 10 mM glucose), 10 mM HEPES, 0.01% (v/v) Pluronic F127, 0.1% (w/v) bovine serum albumin. After 1 h incubation at 37°C, cells were rinsed twice with the same buffer without Fluo4 and left in 50 μl buffer (prior ligand injection). Measurement were performed on a platform based on a motorized Axiobserver Z1 fluorescence microscope piloted by a Axiovision software (Zeiss, Jena, Germany) as described previously. For each selected well, images were taken 1 per second, during 30 seconds. 50 μl of the buffer containing the ligand twice concentrated was injected on the 2nd second of the time lapse record.
After time lapse record, the number of responding cells in each injected well was determined using ImageJ 1.34 (Rasband, W.S., ImageJ, National Institutes of Health, Bethesda, Maryland, USA, http://rsb.info.nih.gov/ij/1997-2004), and expressed as the percentage of the surface of a microscope field covered by activated cells with respect to the total surface of the field covered by confluent cells. Automated determination of the surface occupied by responding cells is easier to perform than a cell counting. The resulting percentage of positive surface provided a convenient estimation of the percentage of responding cells, as observed by comparing the percentage of positive surface and percentage of responsive cells determined by direct counting, in the same experiment. In agreement with the literature, the percentage of responding cells was proportional to the agonist concentration. During experiment in each plate, at least 2 wells were tested with phenylthiocarbamide (PTC) at 0.1 mM, which is one of the best characterized agonist of T2R38 in the literature. The activation of T2R38 by PTC allows normalization of the result of other tested molecules. The results were thus expressed as the percentage of PTC activation. In scaling calcium imaging assays using this latter receptor, concentration-responses curves were performed and data were fitted to a four parameter logistic equation: y=min+ (max− min)/1+10 ^(logEC50−x)nH . Min and max are the minimum and the maximum values of the percentage of cell-activated surface respectively, y is the percentage of cell-activated surface at the x concentration and nH is the Hill coefficient.

[3] = concentration-response curve, read-out: EC50

SMILES: CC[C@H](C)[C@@H]1NC(=O)[C@H](Cc2ccccc2)NC(=O)[C@H](CC(=O)O)NC(=O)[C@@H](NC(=O)[C@@H](NC(=O)[C@H](CO)NC(=O)[C@@H](N)Cc2ccc(O)cc2)[C@@H](C)O)CSC(=O)[C@H](CCSC)NC1=O [Agr D1 thiolactone] (H-YSTCDFIM; thioester 4-C; N-terminus assumed)
- agonist activity on T2R38 (in words) (T2R38): inactive
- specific activation of T2R38 (T2R38; 0.1 mM solubilized in 0.3% DMSO): did not show specific activation; also recorded: did not activate T2R38
- solubility [1]: not soluble in aqueous solution

SMILES: CS [methylmercaptan]
- percentage of surface covered by activated cells ([2]; méthylmercaptan 0.0075, log10[ ] -2.12494): 0.35% and 0.33% and 0.26% and 0.19% and 1.74% and 0.81% and 0.76%
- percentage of surface covered by activated cells ([2]; méthylmercaptan 0.01, log10[ ] -2): 0.36% and 0.09% and 0.12% and 0.53% and 2.03% and 0.10% and 0.15% and 0.34%
- agonist activity on T2R38 (in words) (T2R38): able to specifically trigger this receptor
- response of T2R38 PAV transfected cells (S7_fig raw data) (T2R38; listed as méthylmercaptan): 3.25% and 3.44% and 8% and 6% and 6.36% and 5% and 1.09% and 2.8% and 3.57% and 1.72% and 3% and 1.56% and 5.64% and 4.55%
- EC50 (T2R38; [3]): 8 mM
- logEC50 (T2R38; given in the concentration-response curve): -2.07
- percentage of surface covered by activated cells (T2R38; méthylmercaptan 0.000630957, log10[ ] -3.2): 0.11% and 0.07% and 0.29% and 0.31% and 0.27% and 0.54% and 0.96% and 0.62%
- percentage of surface covered by activated cells (T2R38; méthylmercaptan 0.00439285, log10[ ] -2.35725): 0.81% and 0.87% and 0.46% and 0.37% and 1.33% and 0.26% and 1.05% and 0.97%
- Emax (% of positive control) (T2R38; percentage of the response elicited by 0.1 mM PTC): 31 % of positive control
- response of T2R38 AVI transfected cells (S7_fig raw data) (T2R38 AVI; listed as méthylmercaptan): 0.549% and 0.185% and 0.235% and 0.0265% and 0.511% and 0.151% and 0.286% and 0.362% and 1.77% and 0.619% and 1.26% and 0.598% and 0.172% and 0.165%

SMILES: CC[C@H](C)[C@H](NC(=O)[C@H](Cc1ccccc1)NC(=O)[C@H](CC(=O)O)NC(=O)[C@H](CCCNC(=N)N)NC(=O)[C@H](Cc1ccccc1)NC(=O)[C@H](Cc1ccccc1)NC(=O)[C@H](CCCCN)NC(=O)[C@H](CO)NC(=O)[C@H](CC(C)C)NC(=O)[C@H](CCCNC(=N)N)NC(=O)[C@H](CCSC)NC(=O)[C@@H](N)CCC(=O)O)C(=O)N[C@@H](CC(C)C)C(=O)N[C@@H](CCC(N)=O)C(=O)N[C@@H](CCCNC(=N)N)C(=O)N[C@@H](CCCCN)C(=O)N[C@@H](CCCCN)C(=O)O [CSP-1]
- agonist activity on T2R38 (in words) (T2R38): inactive
- response of T2R38 transfected cells (S6_fig raw data) (T2R38; CSP-1 0.5 mM, T2R38, individual values of experiments 1-3): 37.13% and 3.20% and 100.83%
- solubility [1]: soluble at 0.5 mM in the buffer solution

SMILES: CCCC(C)=O [2-pentanone]
- percentage of surface covered by activated cells ([2]; 2 pentanone 0.0001, log10[ ] -4): 0.19% and 0.34% and 0.32% and 0.16% and 0.35% and 0.41%
- percentage of surface covered by activated cells ([2]; 2 pentanone 0.001, log10[ ] -3): 0.04% and 1.06% and 0.17% and 0.14% and 0.64% and 0.06%
- percentage of surface covered by activated cells ([2]; 2 pentanone 0.003, log10[ ] -2.52288): 0.03% and 0.41% and 0.31% and 0.06% and 0.22% and 0.074%
- percentage of surface covered by activated cells ([2]; 2 pentanone 0.006, log10[ ] -2.22185): 0.27% and 1.25% and 0.19% and 0.29% and 0.62% and 0.33%
- percentage of surface covered by activated cells ([2]; 2 pentanone 0.02, log10[ ] -1.69897): 0.18% and 0.24% and 0.54% and 1.13% and 0.15% and 0.52%
- agonist activity on T2R38 (in words) (T2R38): able to specifically trigger this receptor
- response of T2R38 PAV transfected cells (S7_fig raw data) (T2R38): 9% and 12% and 15% and 13% (2×) and 7.41% and 5.71% and 14%
- EC50 (T2R38; [3]): 4 mM
- EC50 (T2R38; given in the concentration-response curve, read-out: logEC50 (converted)): 4.17 mM
- Emax (T2R38; percentage of the response elicited by 0.1 mM PTC, read-out: Emax (% of positive control)): 45%
- response of T2R38 AVI transfected cells (S7_fig raw data) (T2R38 AVI): 0.427% and 0.477% and 0.476% and 0.193% and 0.0823% and 0.141% and 0.285% and 0.393%
